In the test the target is T1, full-length beta-catenin (Axin site) (Homo sapiens, UniProt P35222).
T1 construct: 15 nM full-length beta-catenin, 20 nM FITC labeled peptide in buffer
T1 sequence (P35222 1-781): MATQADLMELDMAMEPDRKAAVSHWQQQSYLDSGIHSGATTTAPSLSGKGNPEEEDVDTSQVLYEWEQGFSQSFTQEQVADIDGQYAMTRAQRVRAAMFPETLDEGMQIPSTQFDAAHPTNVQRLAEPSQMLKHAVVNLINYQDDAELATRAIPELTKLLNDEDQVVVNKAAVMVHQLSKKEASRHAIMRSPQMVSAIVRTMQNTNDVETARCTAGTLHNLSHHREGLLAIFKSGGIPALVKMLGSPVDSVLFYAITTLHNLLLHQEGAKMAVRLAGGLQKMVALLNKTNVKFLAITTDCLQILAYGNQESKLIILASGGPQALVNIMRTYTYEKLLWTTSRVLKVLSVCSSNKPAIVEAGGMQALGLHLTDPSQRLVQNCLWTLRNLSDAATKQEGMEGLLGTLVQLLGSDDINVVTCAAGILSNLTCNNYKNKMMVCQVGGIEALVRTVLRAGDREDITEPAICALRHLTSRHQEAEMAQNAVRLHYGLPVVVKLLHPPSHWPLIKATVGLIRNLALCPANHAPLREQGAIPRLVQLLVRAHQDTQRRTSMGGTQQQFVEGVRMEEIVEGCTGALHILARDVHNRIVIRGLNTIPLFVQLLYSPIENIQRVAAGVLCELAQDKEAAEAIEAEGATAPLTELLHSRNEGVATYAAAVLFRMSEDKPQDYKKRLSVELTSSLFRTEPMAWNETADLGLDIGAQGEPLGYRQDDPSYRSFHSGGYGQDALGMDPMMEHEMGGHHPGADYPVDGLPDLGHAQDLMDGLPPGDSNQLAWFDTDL
Put plainly: Competition fluorescence polarization assay (Axin site probe). The format is binding. Particulars: competition fluorescence polarization, Table 2; read-out: in vitro FP EC50. As to the method:
FIG. 1. […] Peptide solutions were prepared in buffer (50 mM Tris pH 8.0, 250 mM NaCl, 2% glycerol, 0.5 mM EDTA, 0.02% w/v sodium azide) using a 3-fold serial dilution from 5 μM. Probe solution (15 nM full-length 13-Catenin, 20 nM FITC labeled peptide (FITC-PEG1-PQ-S5-ILD-S5-HVRRVWR (SEQ ID NO: 1) (hydrocarbon staple formed by two S5 via olefin metathesis)) in buffer) was prepared and incubated for 5 minutes, then 40 μL per well plated in a black polystyrene 384-well plate (Corning). Equal volume of the titrated peptide was added to the plate and incubated protected from light for 15 minutes prior to read. Reads were performed on a Spectramax M5 (Molecular Devices) in duplicate.
FIG. 7. […] BCL9 Competition FP assay: Peptide solutions were prepared in buffer (50 mM Tris pH 8.0, 250 mM NaCl, 2% glycerol, 0.5 mM EDTA, 0.02% w/v sodium azide) using a 3-fold serial dilution from 10 μM. Probe solution (250 nM full-length beta-catenin, 20 nM 5FAM labeled peptide in buffer) was prepared and 40 μL per well plated in a black polystyrene 384-well plate (Corning). Equal volume of the titrated peptide was added to the plate and incubated protected from light for 15 minutes prior to read. Reads were performed on a Spectramax M5 (Molecular Devices) in duplicate. Probe: Ac-[…]nLeu-Leu-2NapA-bala-bala-Lys5FAM-NH2 (SEQ ID NO: 2) (from Biochemistry, 2009, 48 (40), pp 9534-9541). Axin Competition FP assay: Peptide solutions were prepared in buffer (50 mM Tris pH 8.0, 250 mM NaCl, 2% glycerol, 0.5 mM EDTA, 0.02% w/v sodium azide) using a 3-fold serial dilution from 5 μM. Probe solution (15 nM full-length beta-catenin, 20 nM FITC labeled peptide in buffer) was prepared and incubated for 5 minutes, then 40 μL per well plated in a black polystyrene 384-well plate (Corning). Equal volume of the titrated peptide was added to the plate and incubated protected from light for 15 minutes prior to read. Reads were performed on a Spectramax M5 (Molecular Devices) in duplicate. Probe: FITC-StAx-33 from Grossmann et al. PNAS 109 17942-17947.
(In general: Fluorescence polarisation rises when a labelled molecule tumbles more slowly, as on binding a larger partner.)

As a reminder, the EC50 is the midpoint of the concentration-response curve. On to `CC[C@H](C)[C@@H]1NC(=O)[C@H](Cc2ccccn2)NC(=O)[C@H](C)NC(=O)[C@H](CC(=O)O)NC(=O)[C@H](CC(C)C)NC(=O)[C@H]([C@@H](C)CC)NC(=O)[C@](C)(NC(=O)[C@H](C)NC(C)=O)CCCCCCC=CCOC(=O)N2CC[C@@](C(=O)N[C@@H](CCC(N)=O)C(=O)N[C@H](C(=O)N[C@@H](Cc3c[nH]c4ccccc34)C(N)=O)C(C)C)(C2)NC1=O` (single isomer, unassigned) [FP0559c Isomer 2, Ac-A-R8-I-L-D-A-2pyr-I-MB-Q-V-W-NH2], for which the EC50 was above 5 µM.

In the case of `CC[C@H](C)[C@@H]1NC(=O)[C@H](Cc2ccccn2)NC(=O)[C@H](C)NC(=O)[C@H](CC(=O)O)NC(=O)[C@H](CC(C)C)NC(=O)[C@H]([C@@H](C)CC)NC(=O)[C@](C)(NC(=O)[C@H](C)NC(C)=O)CCCCCCC=CCOC(=O)N2CC[C@@](C(=O)N[C@@H](CO)C(=O)N[C@H](C(=O)N[C@@H](Cc3c[nH]c4ccccc34)C(N)=O)C(C)C)(C2)NC1=O` (single isomer, unassigned) [FP0560c Isomer 1, Ac-A-R8-I-L-D-A-2pyr-I-MB-S-V-W-NH2], the EC50 is above 5 µM. Under `CC[C@H](C)[C@@H]1NC(=O)[C@H](Cc2ccccn2)NC(=O)[C@H](C)NC(=O)[C@H](CC(=O)O)NC(=O)[C@H](CC(C)C)NC(=O)[C@H]([C@@H](C)CC)NC(=O)[C@](C)(NC(=O)[C@H](C)NC(C)=O)CCCCCCC=CCOC(=O)N2CC[C@@](C(=O)N[C@@H](CO)C(=O)N[C@H](C(=O)N[C@@H](Cc3c[nH]c4ccccc34)C(N)=O)C(C)C)(C2)NC1=O` (single isomer, unassigned) [FP0560c Isomer 2, Ac-A-R8-I-L-D-A-2pyr-I-MB-S-V-W-NH2] stands above 5 µM.

Regarding `CC[C@H](C)[C@@H]1NC(=O)[C@H](Cc2ccccn2)NC(=O)[C@H](C)NC(=O)[C@H](CC(=O)O)NC(=O)[C@H](CC(C)C)NC(=O)[C@H]([C@@H](C)CC)NC(=O)[C@](C)(NC(=O)[C@H](C)NC(C)=O)CCCCCCC=CCOC(=O)N2CC[C@@](C(=O)N[C@H](C(=O)N[C@H](C(=O)N[C@@H](Cc3c[nH]c4ccccc34)C(N)=O)C(C)C)[C@@H](C)O)(C2)NC1=O` (single isomer, unassigned) [FP0561c Isomer 1, Ac-A-R8-I-L-D-A-2pyr-I-MB-T-V-W-NH2], the concentration for a half-maximal effect (EC50) is above 5 µM. Under `CC[C@H](C)[C@@H]1NC(=O)[C@H](Cc2ccccn2)NC(=O)[C@H](C)NC(=O)[C@H](CC(=O)O)NC(=O)[C@H](CC(C)C)NC(=O)[C@H]([C@@H](C)CC)NC(=O)[C@](C)(NC(=O)[C@H](C)NC(C)=O)CCCCCCC=CCOC(=O)N2CC[C@@](C(=O)N[C@H](C(=O)N[C@H](C(=O)N[C@@H](Cc3c[nH]c4ccccc34)C(N)=O)C(C)C)[C@@H](C)O)(C2)NC1=O` (single isomer, unassigned) [FP0561c Isomer 2, Ac-A-R8-I-L-D-A-2pyr-I-MB-T-V-W-NH2] stands above 5 µM; under `CC[C@H](C)[C@@H]1NC(=O)[C@H](Cc2ccccn2)NC(=O)[C@H](C)NC(=O)[C@H](CC(=O)O)NC(=O)[C@H](CC(C)C)NC(=O)[C@H]([C@@H](C)CC)NC(=O)[C@](C)(NC(=O)[C@H](C)NC(C)=O)CCCCCCC=CCOC(=O)N2CC[C@@](C(=O)N[C@H](C(=O)N[C@H](C(=O)N[C@@H](Cc3c[nH]c4ccccc34)C(N)=O)C(C)C)C(C)C)(C2)NC1=O` (single isomer, unassigned) [FP0562c Isomer 1, Ac-A-R8-I-L-D-A-2pyr-I-MB-V-V-W-NH2], above 5 µM; under `CC[C@H](C)[C@@H]1NC(=O)[C@H](Cc2ccccn2)NC(=O)[C@H](C)NC(=O)[C@H](CC(=O)O)NC(=O)[C@H](CC(C)C)NC(=O)[C@H]([C@@H](C)CC)NC(=O)[C@](C)(NC(=O)[C@H](C)NC(C)=O)CCCCCCC=CCOC(=O)N2CC[C@@](C(=O)N[C@H](C(=O)N[C@H](C(=O)N[C@@H](Cc3c[nH]c4ccccc34)C(N)=O)C(C)C)C(C)C)(C2)NC1=O` (single isomer, unassigned) [FP0562c Isomer 2, Ac-A-R8-I-L-D-A-2pyr-I-MB-V-V-W-NH2], above 5 µM. In the case of `CC[C@H](C)[C@@H]1NC(=O)[C@H](Cc2ccccn2)NC(=O)[C@H](C)NC(=O)[C@H](CC(=O)O)NC(=O)[C@H](CC(C)C)NC(=O)[C@H]([C@@H](C)CC)NC(=O)[C@](C)(NC(=O)[C@H](C)NC(C)=O)CCCCCCC=CCOC(=O)N2CC[C@@](C(=O)N[C@@H](Cc3c[nH]c4ccccc34)C(=O)N[C@H](C(=O)N[C@@H](Cc3c[nH]c4ccccc34)C(N)=O)C(C)C)(C2)NC1=O` (single isomer, unassigned) [FP0563c Isomer 1, Ac-A-R8-I-L-D-A-2pyr-I-MB-W-V-W-NH2] it was above 5 µM. Under `CC[C@H](C)[C@@H]1NC(=O)[C@H](Cc2ccccn2)NC(=O)[C@H](C)NC(=O)[C@H](CC(=O)O)NC(=O)[C@H](CC(C)C)NC(=O)[C@H]([C@@H](C)CC)NC(=O)[C@](C)(NC(=O)[C@H](C)NC(C)=O)CCCCCCC=CCOC(=O)N2CC[C@@](C(=O)N[C@@H](Cc3c[nH]c4ccccc34)C(=O)N[C@H](C(=O)N[C@@H](Cc3c[nH]c4ccccc34)C(N)=O)C(C)C)(C2)NC1=O` (single isomer, unassigned) [FP0563c Isomer 2, Ac-A-R8-I-L-D-A-2pyr-I-MB-W-V-W-NH2] stands above 5 µM; under `CC[C@H](C)[C@@H]1NC(=O)[C@H](Cc2ccccn2)NC(=O)[C@H](C)NC(=O)[C@H](CC(=O)O)NC(=O)[C@H](CC(C)C)NC(=O)[C@H]([C@@H](C)CC)NC(=O)[C@](C)(NC(=O)[C@H](C)NC(C)=O)CCCCCCC=CCOC(=O)N2CC[C@@](C(=O)N[C@@H](Cc3ccc(O)cc3)C(=O)N[C@H](C(=O)N[C@@H](Cc3c[nH]c4ccccc34)C(N)=O)C(C)C)(C2)NC1=O` (single isomer, unassigned) [FP0564c Isomer 1, Ac-A-R8-I-L-D-A-2pyr-I-MB-Y-V-W-NH2], above 5 µM; under `CC[C@H](C)[C@@H]1NC(=O)[C@H](Cc2ccccn2)NC(=O)[C@H](C)NC(=O)[C@H](CC(=O)O)NC(=O)[C@H](CC(C)C)NC(=O)[C@H]([C@@H](C)CC)NC(=O)[C@](C)(NC(=O)[C@H](C)NC(C)=O)CCCCCCC=CCOC(=O)N2CC[C@@](C(=O)N[C@@H](Cc3ccc(O)cc3)C(=O)N[C@H](C(=O)N[C@@H](Cc3c[nH]c4ccccc34)C(N)=O)C(C)C)(C2)NC1=O` (single isomer, unassigned) [FP0564c Isomer 2, Ac-A-R8-I-L-D-A-2pyr-I-MB-Y-V-W-NH2], above 5 µM. With `CC[C@H](C)[C@@H]1NC(=O)[C@H](Cc2ccccn2)NC(=O)[C@H](C)NC(=O)[C@H](CC(=O)O)NC(=O)[C@H](CC(C)C)NC(=O)[C@H]([C@@H](C)CC)NC(=O)[C@](C)(NC(=O)[C@H](C)NC(C)=O)CCCCCCC=CCOC(=O)N2CC[C@@](C(=O)N[C@@H](CC3CCC3)C(=O)N[C@H](C(=O)N[C@@H](Cc3c[nH]c4ccccc34)C(N)=O)C(C)C)(C2)NC1=O` (single isomer, unassigned) [FP0565c Isomer 1, Ac-A-R8-I-L-D-A-2pyr-I-MB-Cba-V-W-NH2], the EC50 was above 5 µM. As to `CC[C@H](C)[C@@H]1NC(=O)[C@H](Cc2ccccn2)NC(=O)[C@H](C)NC(=O)[C@H](CC(=O)O)NC(=O)[C@H](CC(C)C)NC(=O)[C@H]([C@@H](C)CC)NC(=O)[C@](C)(NC(=O)[C@H](C)NC(C)=O)CCCCCCC=CCOC(=O)N2CC[C@@](C(=O)N[C@@H](CC3CCC3)C(=O)N[C@H](C(=O)N[C@@H](Cc3c[nH]c4ccccc34)C(N)=O)C(C)C)(C2)NC1=O` (single isomer, unassigned) [FP0565c Isomer 2, Ac-A-R8-I-L-D-A-2pyr-I-MB-Cba-V-W-NH2], the EC50 is above 5 µM.

For the origin of these results see patent US11198713B2, “Agents modulating beta-catenin functions and methods thereof” (FOG PHARMACEUTICALS, INC., priority 2017, dated 2021).
